Measurements reported in patent US11771778B2, “Using DREADD for neuronal modulation in treating neuronal diseases” (priority 2016, dated 2023).

Columns and labels:
[1] = target: T1, wild-type M3 muscarinic receptor (hM3) (Homo sapiens, UniProt P20309); conditions: human pulmonary artery smooth muscle cells (Armbruster et al., 2007); cited from earlier work
T1 construct: host or cells: human pulmonary artery smooth muscle cells

[2] = target: T2, Gi DREADD (hM4D(Gi)) in the EP (GPi) and SNr nuclei (Homo sapiens, UniProt P08173, A203G/Y113C); assay: Open field test, 6OHDA PD mice expressing Gi DREADD in EP and SNr; type: in vivo, C57 black mice
T2 construct: expressed in transfected cells; host or cells: neurons of C57 black mice (EP/SNr or STN), transduced with an AAV8 vector under the hSyn promoter
T2 sequence (P08173 1-479 Y113C/A203G): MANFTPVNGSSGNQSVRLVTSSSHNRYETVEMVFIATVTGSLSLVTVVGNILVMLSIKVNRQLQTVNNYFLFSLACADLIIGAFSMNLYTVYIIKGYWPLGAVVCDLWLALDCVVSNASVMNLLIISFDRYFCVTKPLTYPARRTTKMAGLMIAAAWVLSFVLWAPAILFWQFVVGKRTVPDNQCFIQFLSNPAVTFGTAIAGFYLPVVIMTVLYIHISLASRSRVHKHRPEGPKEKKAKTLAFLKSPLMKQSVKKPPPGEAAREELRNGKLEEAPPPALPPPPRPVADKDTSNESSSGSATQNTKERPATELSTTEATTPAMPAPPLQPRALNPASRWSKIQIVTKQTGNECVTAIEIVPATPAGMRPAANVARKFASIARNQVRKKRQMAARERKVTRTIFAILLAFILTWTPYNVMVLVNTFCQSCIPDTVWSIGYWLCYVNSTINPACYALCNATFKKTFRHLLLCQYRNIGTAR
Protocol: (§1) To monitor the motor impairment and the ability of the DREADD therapy to reverse these impairments the following behavioral tests are conducted. Open field test: to measure motor activity dysfunction. In this test the spontaneous movement of mice in a square arena are recorded and quantified. Rotarod test: Mice were placed on a rotating rod with rotation speed gradually increasing from 4 to 40 RPM using a preset acceleration program. The time mice fell from the rotating rod was measured, with 300 seconds being the maximal time measured on the rod.
(§2) Experiments were performed on 2-4 month old wild type C57 black mice. To induce experimental PD, 1 microliter of a solution containing 6 hydroxy dopamine (6-OHDA) (3 mg/1 ml) was injected into the medial forebrain bundle via a small craniotomy drilled in the skull. The mouse head was fixated in a stereotaxic frame, and the 6OHDA containing solution was injected using a glass pipette held by a micro-manipulator and a micro-injector.
(§3) To express DREADDs (either the inhibitory DREADD Gi or the excitatory DREADD Gq) viral vectors were injected (either AAV8-hSyn-hM3D(Gq)-mCherry or AAV8-hSyn-hM4D(Gi)-mCherry). The viral vectors were injected through a craniotomy with a glass pipette held by a micromanipulator and a micro-injector. During the injections the head was fixated in a stereotaxic frame for accurate injections. Mice were anesthetized throughout the procedure with isoflurane.
(§4) The viral vectors […] were injected into several targets in the basal ganglia loop including the STN (either Gi and Gq), the EP and SNr nuclei (Gi), GPe (Gq) and the ventral thalamus (Gq). The injections were usually unilateral at the side of the 6OHDA injections. However, in cases of bilateral 6OHDA injections viral vectors were injected to the target nuclei bilaterally. Usually viral vectors and 6OHDA were injected at the same session.
(§5) To investigate the effect of DREADD activation, 500 μl of either IP CNO (5 mg/kg) or normal saline (NS-0.9% NaCl) was administered. Administration of either CNO or saline was performed in a blinded manner. […] Behavioral experiments were performed approximately 20-30 minutes after IP drug administration.
(§6) Two behavioral tests were used for monitoring the behavior of mice: (1) Open field test: Mice were placed in a 30 cm×30 cm×30 cm open top box for 5 minutes and continuous recorded on a video. The results were analyzed off-line after the experiments ended. Using the EthoVision software, the mean velocity and distance traveled by the mice were monitored during the 5 minutes of open field test. In addition, the number and direction of 180° turns were monitored with the EthoVision software. […] The time mice fell from the rotating rod was measured, with 300 seconds being the maximal time measured on the rod. […]

[3] = target: T3, Gq DREADD (hM3D(Gq)) in the GPe nucleus (Homo sapiens, UniProt P20309, A239G/Y149C); assay: Open field test, 6OHDA PD mice expressing Gq DREADD in GPe; type: in vivo, C57 black mice
T3 construct: expressed in transfected cells; host or cells: neurons of C57 black mice (GPe or STN), transduced with an AAV8 vector under the hSyn promoter
T3 sequence (P20309 whole entry Y149C/A239G): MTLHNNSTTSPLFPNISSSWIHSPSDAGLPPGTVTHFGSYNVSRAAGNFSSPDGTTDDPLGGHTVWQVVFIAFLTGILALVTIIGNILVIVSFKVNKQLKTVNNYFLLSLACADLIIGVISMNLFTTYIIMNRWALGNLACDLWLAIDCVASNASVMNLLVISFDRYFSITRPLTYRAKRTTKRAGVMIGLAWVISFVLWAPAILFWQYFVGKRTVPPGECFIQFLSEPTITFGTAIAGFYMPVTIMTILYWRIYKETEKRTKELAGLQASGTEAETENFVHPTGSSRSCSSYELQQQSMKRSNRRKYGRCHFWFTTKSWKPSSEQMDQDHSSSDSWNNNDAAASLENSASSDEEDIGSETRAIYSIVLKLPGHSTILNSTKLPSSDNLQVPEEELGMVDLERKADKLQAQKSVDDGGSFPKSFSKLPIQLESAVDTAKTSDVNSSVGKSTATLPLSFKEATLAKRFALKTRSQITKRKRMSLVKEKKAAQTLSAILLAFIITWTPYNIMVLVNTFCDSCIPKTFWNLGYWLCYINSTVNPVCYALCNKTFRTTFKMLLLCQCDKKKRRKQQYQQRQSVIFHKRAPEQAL
Protocol: as §1, §2, §3
The viral vectors […] were injected into several targets in the basal ganglia loop including the STN (either Gi and Gq), the EP and SNr nuclei (Gi), GPe (Gq) and the ventral thalamus (Gq). The injections were usually unilateral at the side of the 6OHDA injections. However, in cases of bilateral 6OHDA injections viral vectors were injected to the target nuclei bilaterally. Usually viral vectors and 6OHDA were injected at the same session. […]
as §6
In this set of experiments, the GPe nucleus, which serves as a major relay nucleus exclusively belonging to the indirect pathway, was targeted. More specifically, the GPe neurons were activated using the excitatory Gq DREADDs, and the effect on behavior on 6-OHDA induced hemi-parkinsonian mice, was monitored.

[4] = target: T3, Gq DREADD (hM3D(Gq)) in the GPe nucleus; assay: Rotarod test, 6OHDA PD mice expressing Gq DREADD in GPe; type: in vivo, C57 black mice
Protocol: as §1
(§7) Experiments were performed on 2-4 month old wild type C57 black mice. […]
as §6

hM3Dq receptor (hM3D) = target: T4, hM3Dq receptor (hM3D) (Homo sapiens, UniProt P20309, A239G/Y149C); conditions: human pulmonary artery smooth muscle cells (Armbruster et al., 2007); cited from earlier work
T4 construct: host or cells: human pulmonary artery smooth muscle cells
T4 sequence (P20309 whole entry Y149C/A239G): as above

[5] = target: T2, Gi DREADD (hM4D(Gi)) in the EP (GPi) and SNr nuclei; assay: Rotarod test, 6OHDA PD mice expressing Gi DREADD in EP and SNr; type: in vivo, C57 black mice
Protocol: as §1, §7, §6

[6] = target: T5, Gi DREADD (hM4D(Gi)) in the STN (Homo sapiens, UniProt P08173, A203G/Y113C); assay: Open field test, 6OHDA PD mice expressing Gi DREADD in STN; type: in vivo, C57 black mice; conditions: blinded IP CNO
T5 construct: expressed in transfected cells; host or cells: neurons of C57 black mice (EP/SNr or STN), transduced with an AAV8 vector under the hSyn promoter
T5 sequence (P08173 1-479 Y113C/A203G): T2 sequence (P08173 1-479 Y113C/A203G)
Protocol: as §1, §7, §6

[7] = target: T5, Gi DREADD (hM4D(Gi)) in the STN; assay: Rotarod test, 6OHDA PD mice expressing Gi DREADD in STN; type: in vivo, C57 black mice; conditions: blinded IP CNO
Protocol: as §1, §7, §6

[8] = Rotarod test, mice without DREADD (normal control and 6OHDA hemi PD); type: in vivo, C57 black mice; conditions: normal control and 6OHDA hemi PD mice, no DREADD; IP CNO 5 mg/kg, blinded
Protocol: as §1, §7, §6

[9] = target: T6, Gq DREADD (hM3D(Gq)) in the STN (Homo sapiens, UniProt P20309, A239G/Y149C); assay: Open field test, 6OHDA PD mice expressing Gq DREADD in STN; type: in vivo, C57 black mice; conditions: IP CNO 5 mg/kg
T6 construct: expressed in transfected cells; host or cells: neurons of C57 black mice (GPe or STN), transduced with an AAV8 vector under the hSyn promoter
T6 sequence (P20309 whole entry Y149C/A239G): as above
Protocol: as §1, §2, §3, §4, §5, §6

[10] = target: T6, Gq DREADD (hM3D(Gq)) in the STN; assay: Rotarod test, 6OHDA PD mice expressing Gq DREADD in STN; type: in vivo, C57 black mice; conditions: IP CNO 5 mg/kg
Protocol: as §1, §7, §6

[11] = Open field test, mice without DREADD (normal control and 6OHDA hemi PD); type: in vivo, C57 black mice; conditions: normal control and 6OHDA hemi PD mice, no DREADD, IP CNO 5 mg/kg, blinded
Protocol: as §1, §7, §6

[12] = 6OHDA bilateral PD mice, bilateral Gi DREADD in both EP and SNr nuclei, p<0.01
[13] = 6OHDA hemi PD mice, unilateral Gi DREADD in EP and SNr, IP CNO 5 mg/kg
[14] = 6OHDA bilateral PD mice, Gq DREADD in both GPe nuclei, p<0.01
[15] = 6OHDA hemi PD mice, unilateral Gq DREADD in GPe, IP CNO 5 mg/kg
[16] = 6OHDA hemi PD mice, unilateral Gq DREADD in STN
[17] = bilateral 6OHDA PD mice, bilateral Gq DREADD in STN

T1 sequence (P20309 whole entry): as the sequence (P20309 whole entry Y149C/A239G) above, with C149Y, G239A counted along it

CC(=O)OCC[N+](C)(C)C [ACh]
activation of wild-type M3 muscarinic receptor (hM3) [1]: potently activated

C[N+]1([O-])CCN(C2=Nc3cc(Cl)ccc3Nc3ccccc32)CC1 [CNO, clozapine-N-oxide]
mean velocity in motor activity test, CNO vs NS [2, 12]: beneficial effect | improvement in the mean velocity in the open field test compared to NS [2, 13]: 36±9% | reduction in the number of clockwise rotations compared to NS [2, 13]: 68.9±10.8% | reduction in the percent of clockwise rotations compared to NS [2, 13]: 46±8.6% | mean velocity in motor activity test, CNO vs NS [3, 14]: beneficial effect | increase in the mean velocity in the open field test compared to NS [3, 15]: 77.2±24.7% | reduction in the number of clockwise rotations compared to NS [3, 15]: 37.7±20% | reduction in the percent of clockwise rotations compared to NS [3, 15]: 40±7.8% | average time on the rotating rod in the rotarod test, CNO vs NS [4, 14]: beneficial effect | increase in the time spent on the rotating rod in the rotarod test compared to NS [4, 15]: 25.6±6.1% | activation of hM3Dq receptor resulting in PIP2 hydrolysis (hM3Dq receptor (hM3D)): selectively activated | average time on the rotating rod in the rotarod test, CNO vs NS [5, 12]: beneficial effect | increase in the time spent on the rotating rod in the rotarod test compared to NS [5, 13]: 30.5±7.1% | effect on turns, CNO vs NS [6]: small, yet significant beneficial effect | mean velocity in the open field test, CNO vs NS [6]: did not significantly affect | performances in the rotarod test, CNO vs NS [7]: did not significantly affect | time to falling off the rotating rod, CNO vs NS [8]: no significant differences | increase in the mean velocity in the open field test compared to NS [9, 16]: 117.6±26.9% | reduction in the number of clockwise rotations compared to NS [9, 16]: 37.2±17% | reduction in the percent of clockwise rotations compared to NS [9, 16]: 47.6±11.1% | increase in the mean velocity in the open field test compared to NS [9, 17]: 294.4±70.9% | performances in the rotarod test, CNO vs NS [10, 16]: no significant differences | increase in the time before falling off the rotarod compared to NS [10, 17]: 81±15.8% | activation of wild-type M3 muscarinic receptor (hM3) [1]: not by CNO | movement velocity in the open field test, CNO vs NS [11]: no significant differences | ipsilateral turning (number and percent of clockwise rotations), CNO vs NS ([11]; 5-minute open field): no significant differences
